Source: US20250281498A1, “FUSED AMINO PYRIMIDINE COMPOUNDS FOR TREATMENT OF SYNUCLEINOPATHIES AND TDP-43 PROTEINOPATHIES” (Ovid Therapeutics Inc., priority 2024, published 2025)

Tests used:
[1] = test system: neuronal cell death in the hippocampus; assay: neuronal cell death in the hippocampus of mice treated with Compound A and diazepam; format: in vivo; settings: Compound A and diazepam vs diazepam alone
KCC2 = target: T1, KCC2 (Homo sapiens, UniProt Q9H2X9); assay: FLIPR TI+ flux assay, HEK-293 cells expressing KCC2; format: cell-based
T1 construct: expressed in transfected cells; host or cells: HEK-293 (ATCC CRL-1573)
T1 sequence (Q9H2X9 1-1116 isoform Q9H2X9-2): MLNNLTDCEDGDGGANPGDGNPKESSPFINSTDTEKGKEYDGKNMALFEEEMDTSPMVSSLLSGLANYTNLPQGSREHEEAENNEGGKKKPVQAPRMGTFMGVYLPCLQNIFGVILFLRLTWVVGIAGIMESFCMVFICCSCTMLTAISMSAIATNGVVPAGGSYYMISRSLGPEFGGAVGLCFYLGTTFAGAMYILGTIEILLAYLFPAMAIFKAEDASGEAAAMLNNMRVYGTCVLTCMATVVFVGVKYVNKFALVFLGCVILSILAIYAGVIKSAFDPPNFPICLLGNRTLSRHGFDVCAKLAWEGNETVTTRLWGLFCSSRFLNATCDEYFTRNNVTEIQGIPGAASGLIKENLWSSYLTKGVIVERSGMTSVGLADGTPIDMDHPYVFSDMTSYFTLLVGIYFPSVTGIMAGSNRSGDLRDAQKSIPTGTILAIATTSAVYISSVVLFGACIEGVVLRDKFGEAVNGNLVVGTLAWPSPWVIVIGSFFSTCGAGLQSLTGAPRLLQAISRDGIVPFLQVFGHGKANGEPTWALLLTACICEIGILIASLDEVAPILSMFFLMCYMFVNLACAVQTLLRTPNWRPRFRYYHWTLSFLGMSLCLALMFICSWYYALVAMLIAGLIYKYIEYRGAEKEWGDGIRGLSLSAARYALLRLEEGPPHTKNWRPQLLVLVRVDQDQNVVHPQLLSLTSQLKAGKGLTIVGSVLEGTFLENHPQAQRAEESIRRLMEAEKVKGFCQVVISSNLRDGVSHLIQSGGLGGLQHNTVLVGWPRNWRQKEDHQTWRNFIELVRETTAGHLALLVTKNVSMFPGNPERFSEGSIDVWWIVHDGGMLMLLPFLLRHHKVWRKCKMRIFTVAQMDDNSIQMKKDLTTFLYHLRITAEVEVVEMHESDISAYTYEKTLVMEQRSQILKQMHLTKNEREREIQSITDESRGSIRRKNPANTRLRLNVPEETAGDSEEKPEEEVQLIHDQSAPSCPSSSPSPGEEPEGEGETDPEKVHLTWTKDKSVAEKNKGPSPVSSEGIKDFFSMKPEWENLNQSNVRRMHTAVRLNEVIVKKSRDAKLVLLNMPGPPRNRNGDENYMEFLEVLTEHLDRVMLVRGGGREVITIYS
Protocol: A multi-tiered high-throughput screening assay was used, leveraging a proprietary library of 1.3 million small molecule compounds from AstraZeneca (Cambridge, UK) to identify chemical entities capable of activating KCC2. A single point concentration of 30 μM was used to identify potassium flux using an established thallium (TI+) influx FLIPR assay as the primary read out in HEK-293 cells overexpressing KCC2 (Cardarelli et al., Nat. Med. 23, 1394-1396 (2017); Conway et al., J Biol Chem 292, 21253-21263 (2017); Lee et al., 2022, supra).
Cell Culture and biotinylation. […]
FLIPR TI Flux assay. HEK-293 cells were washed with HBSS, and then incubated with loading buffer containing TI sensitive fluorescent dye (https://www.moleculardevices.com), 20 μM bumetanide 20 μM ouabain and 2.5 mM probenecid for 1 h at room temperature (RT) under control conditions or with drugs in the dark using a FlexStation 3 microplate reader (Molecular Devices) and imaged […] for 30 min. Stimulus buffer was added containing 5 mM K^+/0.5 mM Tl^+ and cells were imaged every 1.5 over a 190 second time course The initial rate Tl^+ uptake (Relative Fluorescence Units (RFU) per second) was determined following addition of the stimulus buffer as outlined previously (Conway et al., 2017, supra) (Lee et al., 2022, supra). […]

C[C@@H]1CN(c2nc3c(c(Nc4ccc(C5CCCCC5)cc4)n2)COC3)CCO1 [Compound A, (R)—N-(4-cyclohexylphenyl)-2-(2-methylmorpholino)-5,7-dihydrofuro[3,4-d]pyrimidin-4-amine]
neuronal cell death in the hippocampus [1]: significantly reduced
EC50 (KCC2; HEK-293 cells, 1% β-cyclodextrin (BCD) vehicle, read-out: EC50 for KCC2 as measured by TI+ flux): 0.261 ± 0.0222 µM
maximum potentiation of KCC2 (KCC2; saturating concentration of 3 μM, 1% BCD vehicle): 90%
